From patent publication US6391863B1, “Use of carbohydrates for promoting skin desquamation” (L'Oreal, priority 1995, dated 2002)

Test system: Banderia simplicifolia isolectin B4
Experiment: Inhibition of lectin-induced haemagglutination (model of corneocyte cohesion)
Format: cell-based
Conditions: rabbit erythrocytes; lectin at twice its minimum haemagglutinating concentration; carbohydrate starting solution 0.1M, successive dilutions; 30 min contact at ambient temperature
Description: A test to measure the efficacy of the carbohydrates was carried out in vitro. […] The principle of the test lies in the fact that the lectin causes agglutination of the erythrocytes. The products to be tested, which are prepared at various dilutions, are added to the lectin solutions. The minimum concentration of product allowing the inhibition of haemagglutination caused by the lectin is measured. […] To carry out the tests, rabbit erythrocytes marketed by the company Biomérieux under the reference 72291 are employed. These erythrocytes are used in 50% suspension in water. The lectin used is Banderia simplicifolia isolectin B4, marketed by the company SYGMA. All the solutions are diluted in phosphate buffer containing calcium and magnesium. The lectin is dissolved in the phosphate buffer at a concentration of 1 mg/ml. 25 μl of phosphate buffer are distributed in all the wells of the microtitre plates. 25 μl of the lectin to be tested are added to the second well. After homogenization, 25 μl from this well are transferred into the following well and so on to obtain successive dilutions. The erythrocytes are diluted to 1/10^e (fresh solution) . 5 μl of the suspension and 5 μl of the contents of a well are placed on a plate. After mixing by rotation, it is observed whether or not there is haemagglutination. The latter develops in 5 min at the maximum. The minimum quantity of lectin is thus measured, which allows a clear erythrocyte haemagglutination to be obtained. After having measured the minimum quantity of lectin which allows a clear erythrocyte haemagglutination to be obtained, it is chosen to work at twice the concentration. 25 μl of phosphate buffer are placed in microtitre plates to carry out a negative control. In the other wells are distributed 25 μl of lectin at the determined concentration. In the second well are added 25 μl of phosphate buffer to obtain a positive control. In the third well are placed 25 μl of the carbohydrate derivative to be tested in solution at a concentration of 0.1M. After homogenization, 25 μl from this well are taken and placed in the following well and so on so as to obtain successive dilutions. After having left the lectin and the carbohydrate derivative in contact for 30 min at ambient temperature, 5 μl are placed on a plate and are mixed with 5 μl of erythrocyte suspension. It is observed whether or not there is haemagglutination after agitation by rotation. The lowest carbohydrate dilution allowing inhibition of haemagglutination to be observed is measured. The result is given as a fraction (corresponding to the dilution) of the initial concentration (0.1M).

Compound | lowest carbohydrate dilution allowing inhibition of haemagglutination to be observed, given as a fraction (corresponding to the dilution) of the initial concentration (0.1M)
CCCCCCCC(=O)OC[C@H]1O[C@H](O[C@H]2[C@H](O)[C@@H](O)[C@H](O)O[C@@H]2CO)[C@H](O)[C@@H](O)[C@@H]1O [6′-O-octanoyl-D-maltose, 6′-O-octanoyl-β-D-maltose] | ¼
CC(=O)N[C@H]1C(O)O[C@H](CO)[C@@H](O)[C@@H]1O (stereo partly drawn) [N-acetyl-D-glucosamine, reference compound] | no inhibition observed
CCCCCCCCOC(=O)N(C)C[C@H](O)[C@@H](O)[C@H](O)[C@H](O)CO [N-octyloxycarbonyl-N-methyl-D-glucamine] | 1/64
N-2-ethylhexyloxy-carbonyl-N-methyl-D-glucamine | 1/16
